Data on 17 molecules can be found in the supplement of paper PMC6965134.

± gives the standard deviation of the averaged measurements.

The series can be described thus: TIMS collisional cross section (CCS, N2) of the lipid ion; higher = larger ion cross section. As to conditions: ionization mode: negative, one isomer drawn. On the procedure:
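Lipid extracts of human plasma (NIST SRM 1950), mouse liver or HeLa cells were separated by nanoflow C18 LC (30 min gradient) and analysed by TIMS-PASEF on a timsTOF Pro. Ion mobility was calibrated with the Agilent tuning mix (negative mode ions) and converted to collisional cross sections (Mason–Schamp, N2).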

Where [1] appears, read: sample type: Human plasma, ion (formula + adduct): [C44H80NO7P+AcO] 1-.
The mark [2] stands for this setting: sample type: Human plasma, ion (formula + adduct): [C46H84NO7P-CH3] 1-.
The mark [3] stands for this setting: sample type: Mouse Liver, ion (formula + adduct): [C46H84NO7P-CH3] 1-.
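Further: lipids from MTBE extraction, five replicate injections per sample, 100 ms TIMS ramp spanning 0.6–1.95 Vs/cm², lipid identity assigned from PASEF MS/MS spectra.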

As for `CCCCC/C=C\C/C=C\CCCCCCCC(=O)O[C@H](COCCCCCCCCCCCCCCCC)COP(=O)([O-])OCC[N+](C)(C)C` [PC O- 16:0@_18:2], the “TIMS collisional cross section” value (sample type: Human plasma, ion (formula + adduct): [C42H82NO7P+HCOO] 1-) worked out at 288.8 Å²; the “TIMS collisional cross section” value (sample type: Human plasma, ion (formula + adduct): [C42H82NO7P-CH3] 1-) is 271.8 Å²; the “TIMS collisional cross section” value (sample type: Mouse Liver, ion (formula + adduct): [C42H82NO7P+HCOO] 1-) is 290 Å².

In the case of `CCCCCCCCCC/C=C\CCCCCCCC(=O)O[C@H](COCCCCCCCCCCCCCCCC)COP(=O)([O-])OCC[N+](C)(C)C` [PC O- 16:0@_20:1], the “TIMS collisional cross section” value (sample type: Mouse Liver, ion (formula + adduct): [C44H88NO7P-CH3] 1-) was 279.7 Å². As to `CCCCC/C=C\C/C=C\C/C=C\C/C=C\CCCC(=O)O[C@H](COCCCCCCCCCCCCCCCC)COP(=O)([O-])OCC[N+](C)(C)C` [PC O- 16:0@_20:4], the “TIMS collisional cross section” value runs as follows: (sample type: Human plasma, ion (formula + adduct): [C44H82NO7P+AcO] 1-) 299.9 Å²; (sample type: Human plasma, ion (formula + adduct): [C44H82NO7P+HCOO] 1-) 293.3 Å²; (sample type: Mouse Liver, ion (formula + adduct): [C44H82NO7P+HCOO] 1-) 292.7 Å². Consider `CC/C=C\C/C=C\C/C=C\C/C=C\C/C=C\CCCC(=O)O[C@H](COCCCCCCCCCCCCCCCC)COP(=O)([O-])OCC[N+](C)(C)C` [PC O- 16:0@_20:5], for which the “TIMS collisional cross section” value under setting [1] is 298.5 Å². As for `CC/C=C\C/C=C\C/C=C\C/C=C\C/C=C\CCCCCC(=O)OC(COCCCCCCCCCCCCCCCC)COP(=O)([O-])OCC[N+](C)(C)C` (stereo not given) [PC O- 16:0@_22:5], the “TIMS collisional cross section” value is, setting by setting: under setting [2], 281.3 Å²; under setting [3], 280.2 Å².

As to `CC/C=C\C/C=C\C/C=C\C/C=C\C/C=C\C/C=C\CCC(=O)O[C@H](COCCCCCCCCCCCCCCCC)COP(=O)([O-])OCC[N+](C)(C)C` [PC O- 16:0@_22:6], the “TIMS collisional cross section” value by setting is: (sample type: Human plasma, ion (formula + adduct): [C46H82NO7P+HCOO] 1-) 298.4 Å²; (sample type: Mouse Liver, ion (formula + adduct): [C46H82NO7P+HCOO] 1-) 296.7 Å². As to `CCCCCCCCCCCCCCCCOC[C@H](COP(=O)([O-])OCC[N+](C)(C)C)OC(=O)CCCCCCCCCCCCCCC` [PC O- 16:0_16:0], the “TIMS collisional cross section” value (sample type: Human plasma, ion (formula + adduct): [C40H82NO7P+HCOO] 1-) stood at 287.8 Å². With `CCCCC/C=C\C/C=C\CCCCCCCC(=O)O[C@H](COCCCCCCCC/C=C\CCCCCC)COP(=O)([O-])OCC[N+](C)(C)C` [PC O- 16:1@_18:2], the “TIMS collisional cross section” value runs as follows: (sample type: Human plasma, ion (formula + adduct): [C42H80NO7P-CH3] 1-) 272.4 Å²; (sample type: Mouse Liver, ion (formula + adduct): [C42H80NO7P-CH3] 1-) 272.4 Å². For `CC/C=C\C/C=C\C/C=C\C/C=C\CCCCCCC(=O)O[C@H](COCCCCCCCC/C=C\CCCCCC)COP(=O)([O-])OCC[N+](C)(C)C` [PC O- 16:1@_20:4], the “TIMS collisional cross section” value under setting [1] was determined as 296.2 Å²; the “TIMS collisional cross section” value (sample type: Human plasma, ion (formula + adduct): [C44H80NO7P-H] 1-) was 278.5 Å²; the “TIMS collisional cross section” value (sample type: Mouse Liver, ion (formula + adduct): [C44H80NO7P+HCOO] 1-) is on record as 292.2 Å²; the “TIMS collisional cross section” value (sample type: Mouse Liver, ion (formula + adduct): [C44H80NO7P-CH3] 1-) is recorded as 275.7 Å². Regarding `CC/C=C\C/C=C\C/C=C\C/C=C\CCCCCCC(=O)O[C@H](COCCCCCCCC/C=C\CCCCCC)COP(=O)([O-])OCC[N+](C)(C)C` [PC O- 16:1_20:4], for the setting “sample type: Human plasma, ion (formula + adduct): [C44H80NO7P+HCOO] 1-”, the “TIMS collisional cross section” value was 292.2 Å². Turning to `CCCCCCCCCCCCCCCCCCOC[C@H](COP(=O)([O-])OCC[N+](C)(C)C)OC(=O)CCCCCCCCCCCCCCC` [PC O- 18:0@_16:0], the “TIMS collisional cross section” value (sample type: Human plasma, ion (formula + adduct): [C42H86NO7P+HCOO] 1-) is reported as 293.5 Å². Turning to `CCCCC/C=C\C/C=C\CCCCCCCC(=O)O[C@H](COCCCCCCCCCCCCCCCCCC)COP(=O)([O-])OCC[N+](C)(C)C` [PC O- 18:0@_18:2], under “sample type: Mouse Liver, ion (formula + adduct): [C44H86NO7P-CH3] 1-”, the “TIMS collisional cross section” value is 276.8 Å². For `CCCCC/C=C\C/C=C\C/C=C\C/C=C\CCCC(=O)O[C@H](COCCCCCCCCCCCCCCCCCC)COP(=O)([O-])OCC[N+](C)(C)C` [PC O- 18:0@_20:4], where the note is “sample type: Human plasma, ion (formula + adduct): [C46H86NO7P+HCOO] 1-”, the “TIMS collisional cross section” value came to 299 Å². On to `CC/C=C\C/C=C\C/C=C\C/C=C\C/C=C\C/C=C\CCC(=O)O[C@H](COCCCCCCCCCCCCCCCCCC)COP(=O)([O-])OCC[N+](C)(C)C` [PC O- 18:0@_22:6], for which, where the note is “sample type: Human plasma, ion (formula + adduct): [C48H86NO7P+HCOO] 1-”, the “TIMS collisional cross section” value worked out at 303.2 Å². In the case of `CCCCCCCC/C=C\CCCCCCCCOC[C@H](COP(=O)([O-])OCC[N+](C)(C)C)OC(=O)CCCCCCCCCCCCCCC` [PC O- 18:1@_16:0], the “TIMS collisional cross section” value (sample type: Human plasma, ion (formula + adduct): [C42H84NO7P+HCOO] 1-) worked out at 291.1 Å². With `CCCCC/C=C\C/C=C\C/C=C\C/C=C\CCCC(=O)O[C@H](COCCCCCCCC/C=C\CCCCCCCC)COP(=O)([O-])OCC[N+](C)(C)C` [PC O- 18:1@_20:4], the “TIMS collisional cross section” value runs as follows: (sample type: Human plasma, ion (formula + adduct): [C46H84NO7P+HCOO] 1-) 297.5 ± 0.42 Å²; under setting [2], 282.5 Å²; (sample type: Mouse Liver, ion (formula + adduct): [C46H84NO7P+HCOO] 1-) 296.1 Å²; under setting [3], 282.5 Å².

For the molecule `CC/C=C\C/C=C\C/C=C\C/C=C\CCCCCCC(=O)O[C@H](COCCCCCCCCCC/C=C\CCCCCCCC)COP(=O)([O-])OCC[N+](C)(C)C` [PC O- 20:1@_20:4], the “TIMS collisional cross section” value (sample type: Human plasma, ion (formula + adduct): [C48H88NO7P+HCOO] 1-) stood at 302.3 Å².
